This is an account of results in ChEMBL document CHEMBL4304820, “Design, synthesis and biological evaluation of novel serotonin and dopamine receptor ligands being 6-bromohexyl saccharine derivatives” (Bioorg Med Chem Lett, 2019).

The target of assay [1] is T1, 5-hydroxytryptamine receptor 1A (Rattus norvegicus, UniProt P19327).
T1 sequence (P19327 whole entry): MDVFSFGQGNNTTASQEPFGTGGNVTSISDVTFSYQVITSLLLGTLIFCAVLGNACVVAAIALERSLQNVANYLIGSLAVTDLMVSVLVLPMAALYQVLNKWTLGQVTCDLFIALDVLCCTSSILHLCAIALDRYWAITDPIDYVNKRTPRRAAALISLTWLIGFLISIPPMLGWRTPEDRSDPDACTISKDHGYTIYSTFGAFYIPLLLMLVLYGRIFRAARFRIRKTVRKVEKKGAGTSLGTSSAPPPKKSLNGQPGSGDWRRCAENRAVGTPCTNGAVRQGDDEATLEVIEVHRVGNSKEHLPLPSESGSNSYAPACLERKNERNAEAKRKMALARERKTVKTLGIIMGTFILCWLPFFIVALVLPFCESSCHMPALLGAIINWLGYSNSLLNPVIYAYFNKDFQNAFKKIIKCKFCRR
The assay can be described thus: Displacement of [3H]-8-OH-DPAT from 5HT1A receptor in Wistar rat brain cerebral cortex incubated for 30 mins by liquid scintillation spectrometry. Format: tissue-based.

The target of assay [2] is 5-hydroxytryptamine receptor 2A (Rattus norvegicus, UniProt P14842). The assay can be described thus: Displacement of [3H]ketanserin from 5-HT2A receptor in Wistar rat brain frontal cortex incubated for 30 mins by radioligand binding assay. The format is tissue-based.
Assay [3] addresses T2, D(2) dopamine receptor (Homo sapiens, UniProt P14416). As to the kind of experiment: Displacement of [3H]raclopride from full length human cloned D2L receptor expressed in HEK293 cells incubated for 1 hr by radioligand displacement assay. The format is cell-based.
Assay [4] deals with 5-hydroxytryptamine receptor 2A (Homo sapiens, UniProt P28223). As to the kind of experiment: Displacement of [3H]ketanserin from full length human cloned 5HT2A receptor expressed in CHO-K1 cells incubated for 1 hr by radioligand displacement assay. The format is cell-based.
Assay [5] deals with 5-hydroxytryptamine receptor 6 (Homo sapiens, UniProt P50406). The assay can be described thus: Displacement of [3H]LSD from full length human cloned 5HT6R expressed in HEK293 cells incubated for 1 hr by radioligand displacement assay. The format is cell-based.
Assay [6] concerns the target T3, 5-hydroxytryptamine receptor 1A (Homo sapiens, UniProt P08908).
T3 sequence (P08908 whole entry): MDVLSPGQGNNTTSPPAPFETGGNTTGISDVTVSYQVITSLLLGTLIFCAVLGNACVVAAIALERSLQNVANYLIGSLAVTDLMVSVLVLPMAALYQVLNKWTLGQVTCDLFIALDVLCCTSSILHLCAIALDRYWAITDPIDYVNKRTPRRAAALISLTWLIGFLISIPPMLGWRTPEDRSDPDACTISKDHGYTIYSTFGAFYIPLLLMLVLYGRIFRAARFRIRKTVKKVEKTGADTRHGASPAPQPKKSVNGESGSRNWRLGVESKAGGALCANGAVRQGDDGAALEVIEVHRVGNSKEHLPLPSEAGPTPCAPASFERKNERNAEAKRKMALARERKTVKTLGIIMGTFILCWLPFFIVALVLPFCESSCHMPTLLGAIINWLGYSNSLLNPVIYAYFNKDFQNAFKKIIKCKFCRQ
As to the kind of experiment: Displacement of [3H]-8-OH-DPAT from full length human cloned 5HT1A receptor expressed in HEK293 cells incubated for 1 hr by radioligand displacement assay. Format: cell-based.

Assay [7] addresses 5-hydroxytryptamine receptor 7 (Homo sapiens, UniProt P34969). The assay can be described thus: Displacement of [3H]5-CT from full length human cloned 5-HT7bR expressed in HEK293 cells incubated for 1 hr by radioligand displacement assay. The format is cell-based.
Assay [8] concerns the target T3, 5-hydroxytryptamine receptor 1A. As to the kind of experiment: Agonist activity at human 5 HT1A receptor expressed in HEK293 cells assessed as inhibition of forskolin-stimulated cAMP accumulation incubated for 30 mins by TR-FRET assay. The format is functional, cell-based.
For assay [9], the target named is T2, D(2) dopamine receptor. As to the kind of experiment: Antagonist activity at human D2 receptor expressed in HEK293 cells assessed as cAMP accumulation incubated for 30 mins in presence of forskolin/dopamine by TR-FRET assay. The format is functional, cell-based.
The target of assay [10] is T4, 5-hydroxytryptamine receptor 1A (Homo sapiens) (UniProt P08908).
T4 sequence (whole entry): T3 sequence (P08908 whole entry)
The assay can be described thus: Antagonist activity at human 5 HT1A receptor expressed in HEK293 cells assessed as cAMP accumulation incubated for 30 mins in presence of forskolin/8-OH-DPAT by TR-FRET assay. The format is functional, cell-based.

The target in assay [11] is T1, 5-hydroxytryptamine receptor 1A. As to the kind of experiment: Displacement of [3H]-8-OH-DPAT from 5HT1A receptor in rat brain hippocampus incubated for 60 mins by radioligand binding assay.
In assay [12] the target is D(2) dopamine receptor (Rattus norvegicus, UniProt P61169). As to the kind of experiment: Displacement of [3H]raclopride from D2 receptor in rat brain striatum incubated for 60 mins by radioligand binding assay. Format: tissue-based.
Assay [13] concerns the target T2, D(2) dopamine receptor. As to the kind of experiment: Displacement of [3H]raclopride from human cloned D2 receptor expressed in HEK293 cells by radioligand binding assay. The format is cell-based.

Chain of 5-hydroxytryptamine receptor 2A (Homo sapiens, UniProt P28223) (P28223 whole entry): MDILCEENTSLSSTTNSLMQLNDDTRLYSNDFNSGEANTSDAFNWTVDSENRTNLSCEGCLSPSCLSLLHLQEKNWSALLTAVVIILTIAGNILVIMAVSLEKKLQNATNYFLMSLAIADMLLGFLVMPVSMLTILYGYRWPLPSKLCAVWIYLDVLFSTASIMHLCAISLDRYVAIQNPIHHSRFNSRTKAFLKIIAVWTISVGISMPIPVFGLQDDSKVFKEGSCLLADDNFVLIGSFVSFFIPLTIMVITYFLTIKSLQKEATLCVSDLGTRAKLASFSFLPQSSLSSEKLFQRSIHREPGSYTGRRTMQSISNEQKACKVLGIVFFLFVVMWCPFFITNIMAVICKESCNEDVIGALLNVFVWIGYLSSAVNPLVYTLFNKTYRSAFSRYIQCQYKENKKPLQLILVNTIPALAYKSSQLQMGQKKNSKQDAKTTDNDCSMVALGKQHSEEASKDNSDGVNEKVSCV
Chain of 5-hydroxytryptamine receptor 7 (P34969 whole entry): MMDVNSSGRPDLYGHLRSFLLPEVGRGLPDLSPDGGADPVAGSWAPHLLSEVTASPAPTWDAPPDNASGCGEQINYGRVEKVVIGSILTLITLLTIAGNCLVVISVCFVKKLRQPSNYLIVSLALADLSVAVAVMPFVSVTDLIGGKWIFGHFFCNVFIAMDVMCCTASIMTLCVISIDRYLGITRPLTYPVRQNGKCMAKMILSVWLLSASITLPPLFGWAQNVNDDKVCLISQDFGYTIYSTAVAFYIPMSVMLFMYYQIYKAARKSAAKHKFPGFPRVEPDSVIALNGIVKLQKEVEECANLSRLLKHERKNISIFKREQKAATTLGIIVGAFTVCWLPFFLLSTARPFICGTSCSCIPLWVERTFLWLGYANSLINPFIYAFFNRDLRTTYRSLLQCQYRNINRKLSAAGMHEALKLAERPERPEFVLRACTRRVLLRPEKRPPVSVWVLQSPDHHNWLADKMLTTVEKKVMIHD
Chain of 5-hydroxytryptamine receptor 6 (P50406 whole entry): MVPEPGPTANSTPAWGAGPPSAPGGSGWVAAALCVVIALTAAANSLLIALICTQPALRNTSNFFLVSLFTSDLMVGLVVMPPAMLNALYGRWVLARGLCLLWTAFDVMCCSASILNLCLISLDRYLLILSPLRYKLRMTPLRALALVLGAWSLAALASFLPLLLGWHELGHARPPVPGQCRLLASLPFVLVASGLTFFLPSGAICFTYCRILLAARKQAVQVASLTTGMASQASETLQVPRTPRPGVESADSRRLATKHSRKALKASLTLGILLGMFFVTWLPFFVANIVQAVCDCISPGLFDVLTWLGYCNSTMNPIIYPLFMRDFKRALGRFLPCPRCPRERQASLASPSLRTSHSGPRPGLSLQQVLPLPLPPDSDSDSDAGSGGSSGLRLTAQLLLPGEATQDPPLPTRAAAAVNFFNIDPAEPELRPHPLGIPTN
T2 sequence (P14416 whole entry): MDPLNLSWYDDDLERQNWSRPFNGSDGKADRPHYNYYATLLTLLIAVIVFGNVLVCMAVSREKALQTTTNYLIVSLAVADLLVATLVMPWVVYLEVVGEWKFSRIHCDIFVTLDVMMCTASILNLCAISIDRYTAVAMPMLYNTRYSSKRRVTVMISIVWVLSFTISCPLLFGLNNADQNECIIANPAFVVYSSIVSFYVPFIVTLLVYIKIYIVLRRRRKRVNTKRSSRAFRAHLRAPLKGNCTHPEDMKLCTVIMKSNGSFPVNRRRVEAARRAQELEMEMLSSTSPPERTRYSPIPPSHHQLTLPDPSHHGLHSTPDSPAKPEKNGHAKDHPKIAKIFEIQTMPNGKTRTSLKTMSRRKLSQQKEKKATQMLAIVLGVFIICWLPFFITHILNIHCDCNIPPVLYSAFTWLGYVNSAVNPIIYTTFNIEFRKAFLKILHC
Chain of D(2) dopamine receptor (Rattus norvegicus, UniProt P61169) (P61169 whole entry): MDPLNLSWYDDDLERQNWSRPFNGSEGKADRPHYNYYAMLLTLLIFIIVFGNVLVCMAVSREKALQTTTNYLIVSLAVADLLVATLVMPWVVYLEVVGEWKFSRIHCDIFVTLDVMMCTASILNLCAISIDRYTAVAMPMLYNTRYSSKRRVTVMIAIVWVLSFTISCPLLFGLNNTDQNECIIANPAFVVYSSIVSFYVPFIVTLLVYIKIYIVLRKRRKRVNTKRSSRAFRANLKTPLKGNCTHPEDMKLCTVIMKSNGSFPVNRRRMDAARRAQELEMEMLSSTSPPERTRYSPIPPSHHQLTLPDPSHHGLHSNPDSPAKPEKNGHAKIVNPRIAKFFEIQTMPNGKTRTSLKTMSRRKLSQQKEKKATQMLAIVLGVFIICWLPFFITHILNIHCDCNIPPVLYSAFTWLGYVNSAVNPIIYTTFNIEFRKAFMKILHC
Chain of 5-hydroxytryptamine receptor 2A (Rattus norvegicus, UniProt P14842) (P14842 whole entry): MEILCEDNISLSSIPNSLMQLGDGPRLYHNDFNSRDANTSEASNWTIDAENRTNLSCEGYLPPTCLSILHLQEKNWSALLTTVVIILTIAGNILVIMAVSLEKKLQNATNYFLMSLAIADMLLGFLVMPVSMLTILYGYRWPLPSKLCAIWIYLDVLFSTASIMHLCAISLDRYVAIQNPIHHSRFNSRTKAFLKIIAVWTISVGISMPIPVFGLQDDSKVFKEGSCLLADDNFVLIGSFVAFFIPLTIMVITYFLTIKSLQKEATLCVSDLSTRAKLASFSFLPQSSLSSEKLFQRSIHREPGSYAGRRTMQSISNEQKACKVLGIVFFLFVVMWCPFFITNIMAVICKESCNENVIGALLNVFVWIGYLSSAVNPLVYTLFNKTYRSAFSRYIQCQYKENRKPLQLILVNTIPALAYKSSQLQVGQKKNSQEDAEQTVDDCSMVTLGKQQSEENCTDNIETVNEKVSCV

For the compound `O=C1c2ccccc2S(=O)(=O)N1CCCCN1CCN(c2cccc(C(F)(F)F)c2)CC1`, the values for the inhibition constant Ki in assay [1] and in assay [2] were 100 nM and 2250 nM, respectively.

Regarding `O=C1c2ccccc2S(=O)(=O)N1CCCCCCN1CCN(c2ccccn2)CC1`, the Ki in assay [3] worked out at 239 nM; in [4], 1290 nM; in assay [5], 2350 nM; in assay [6], 13 nM; in assay [7] it was 552 nM.

In the case of `O=C1c2ccccc2S(=O)(=O)N1CCCCCCN1CCN(c2cccc(C(F)(F)F)c2)CC1`, the Ki in [3] stood at 7 nM; in assay [4], 167 nM; in [5], 52 nM; in assay [6] it was 25 nM; in [7], 58 nM. Also, the EC50 in [8] came to 56 nM. Moreover, the antagonist dissociation constant (Kb) in assay [9] amounted to 319 nM.

In the case of `O=C1c2ccccc2S(=O)(=O)N1CCCCCCN1CCN(c2ccc(Cl)cc2)CC1`, the Ki in [3] stood at 28 nM; in [6], 84 nM.

For `O=C1c2ccccc2S(=O)(=O)N1CCCCCCN1CCN(c2ccc(Cl)c(Cl)c2)CC1`, the Ki was determined as 105 nM in assay [3]; 283 nM in assay [4]; 132 nM in assay [5]; 54 nM in assay [6]; 258 nM in [7].

Turning to `COc1ccc(N2CCN(CCCCCCN3C(=O)c4ccccc4S3(=O)=O)CC2)cc1`, the figures for the inhibitory constant (Ki) in assay [3] and in assay [6] were 950 nM and 327 nM, respectively.

In the case of `O=C1c2ccccc2S(=O)(=O)N1CCCCCCN1CCN(c2ccccc2F)CC1`, the Ki worked out at 24 nM in [3]; 307 nM in assay [4]; 1620 nM in assay [5]; 12 nM in [6]; 322 nM in assay [7].

For the compound `O=C1c2ccccc2S(=O)(=O)N1CCCCCCN1CCN(c2ccccc2C(F)(F)F)CC1`, the Ki in [3] turned out to be 27 nM; in [4] it was 922 nM; in [5] it was 1270 nM; in [6], 156 nM; in [7], 195 nM.

As to `O=C1c2ccccc2S(=O)(=O)N1CCCCCCN1CCN(c2cccc3cccnc23)CC1`, the inhibition constant Ki amounted to 15 nM in assay [3]; 205 nM in [4]; 1720 nM in assay [5]; 4 nM in [6]; 21 nM in assay [7]. Also, the Kb came to 10 nM in assay [9] and 7 nM in assay [10].

Regarding `COc1cccc(N2CCN(CCCCCCN3C(=O)c4ccccc4S3(=O)=O)CC2)c1`, the Ki in assay [3] was 113 nM; in assay [4] it was 342 nM; in assay [5] it was 921 nM; in assay [6], 19 nM; in assay [7] it was 305 nM.

As for `O=C1c2ccccc2S(=O)(=O)N1CCCCCCN1CCN(c2ncccn2)CC1`, the Ki in assay [3] came out at 51 nM; in assay [4], 183 nM; in assay [5], 104 nM; in [6] it was 24 nM; in assay [7] it was 35 nM.

Turning to `O=C1c2ccccc2S(=O)(=O)N1CCCCCCN1CCN(c2ccccc2)CC1`, the Ki in assay [3] stood at 48 nM; in assay [4], 321 nM; in assay [5], 971 nM; in assay [6], 20 nM; in assay [7], 192 nM.

For `O=C1c2ccccc2S(=O)(=O)N1CCCCCCN1CCN(c2cccc(Cl)c2)CC1`, the Ki in assay [3] came out at 39 nM; in assay [4], 361 nM; in [5] it was 372 nM; in [6] it was 21 nM; in assay [7] it was 233 nM.

As to `O=c1ccc2ccc(OCCCCN3CCN(c4cccc5sccc45)CC3)cc2[nH]1` [BREXPIPRAZOLE], the inhibition constant (Ki) in assay [11] is 0.09 nM; in [12] it was 3.8 nM.

Turning to `COc1ccccc1N1CCN(CCCCCCN2C(=O)c3ccccc3S2(=O)=O)CC1`, the Ki in assay [3] amounted to 61 nM; in [6] it was 91 nM.

`O=C1c2ccccc2S(=O)(=O)N1CCCCN1CCN(c2ncccn2)CC1` [IPSAPIRONE] registered an inhibition constant Ki in [13] of 1220 nM.

Consider `O=C1c2ccccc2S(=O)(=O)N1CCCCCCN1CCN(c2cccc(Cl)c2Cl)CC1`, for which the Ki in [3] was 132 nM; in [4], 209 nM; in [5], 920 nM; in assay [6], 58 nM; in assay [7], 119 nM.

With `O=C1c2ccccc2S(=O)(=O)N1CCCCCCN1CCN(c2cccc3ccccc23)CC1`, the Ki in assay [3] worked out at 8 nM; in assay [4], 91 nM; in [5] it was 157 nM; in assay [6], 9 nM; in [7] it was 20 nM. Moreover, the Kb in assay [9] and in [10] was 14 nM each time.

As for `O=C1c2ccccc2S(=O)(=O)N1CCCCCCN1CCN(c2nsc3ccccc23)CC1`, the inhibition constant Ki is 9 nM in assay [3]; 23 nM in assay [4]; 58 nM in assay [5]; 23 nM in assay [6]; 45 nM in assay [7].

As for `O=C1c2ccccc2S(=O)(=O)N1CCCCCCN1CCN(c2ccccc2Cl)CC1`, the Ki in assay [3] worked out at 45 nM; in [4], 266 nM; in assay [5] it was 459 nM; in assay [6], 26 nM; in assay [7], 120 nM.
